From patent US10889546B2, “Alkynyl pyridine prolyl hydroxylase inhibitor, and preparation method and medical use thereof” (Jiangsu Hengrui Medicine Co., Ltd., priority 2015, dated 2021) come the findings set out here.

Assay [1] concerns VEGF. As to the kind of experiment: VEGF expression at the cellular level (VEGF kit). The assay is classed as cell-based. The conditions noted are these: Hep3B human hepatoma cell, 24 h after administration. The protocol: (§1) The test of the activity of some compounds of the present invention on VEGF at the cellular level and EPO at the cellular level is shown as follows. The method is in accordance with Bioorganic & Medicinal Chemistry Letters 23 (2013) 5953-5957, and the test was carried out by using VEGF and EPO kit respectively 24 h after administration.
(§2) Hep3B Cell: Human Hepatoma Cell

Assay [2] deals with EPO. As to the kind of experiment: EPO expression at the cellular level (EPO kit). The class given is cell-based. The conditions noted are these: Hep3B human hepatoma cell, 24 h after administration. On the procedure:
as §1, §2
Also: test concentration or dose not given here.

Consider `COC(=O)CNC(=O)c1ncc(C#Cc2ccccc2)cc1O` [Example 6, Methyl 2-(3-hydroxy-5-phenylethynyl)picolinamido acetate], for which the “Whether it can increase the expression of VEGF in cells” value in assay [1] is listed as “Yes”. In addition, the “Whether it can increase the expression of EPO in cells” value in assay [2] is “Yes”. Consider `Cc1ccc(C#Cc2cc(O)c(C(=O)NCC(=O)O)nc2C)cc1` [Example 7, 2-(3-Hydroxy-5-p-methylphenylethynyl-6-methyl)picolinamido acetic acid], for which, in assay [2], the “Whether it can increase the expression of EPO in cells” value is “Yes”. Take `COc1ccc(C#Cc2cc(O)c(C(=O)NCC(=O)O)nc2Cl)cc1` [Example 8, 2-(3-Hydroxy-5-p-methoxyphenylethynyl-6-chloro)picolinamido acetic acid]: in assay [1], the “Whether it can increase the expression of VEGF in cells” value was “Yes”. In assay [2], the “Whether it can increase the expression of EPO in cells” value was “Yes”. As for `CC(NC(=O)c1ncc(C#Cc2ccc(C3CC3)cc2)cc1O)C(=O)O` (centres unmarked) [Example 9, 2-(3-Hydroxy-5-p-cyclopropylphenylethynylpyridine)carboxamido propionic acid], the “Whether it can increase the expression of VEGF in cells” value in assay [1] is “Yes”. In addition, in assay [2], the “Whether it can increase the expression of EPO in cells” value was “Yes”. `COc1ccc(C#Cc2cnc(C(=O)NCC(=O)O)c(O)c2)cc1` [Example 16, 2-(3-Hydroxy-5-p-methoxyphenylethynyl)picolinamido acetic acid]: the “Whether it can increase the expression of EPO in cells” value in assay [2] was “Yes”.

In the case of `COc1cccc(C#Cc2cnc(C(=O)NCC(=O)O)c(O)c2)c1` [Example 17, 2-(3-Hydroxy-5-m-methoxyphenylethynyl)picolinamido acetic acid], in assay [1], the “Whether it can increase the expression of VEGF in cells” value was “Yes”. For the same compound, the “Whether it can increase the expression of EPO in cells” value in assay [2] is “Yes”. Take `N#Cc1ccc(C#Cc2cnc(C(=O)NCC(=O)O)c(O)c2)cc1` [Example 19, 2-(3-Hydroxy-5-p-cyanophenylethynyl)picolinamido acetic acid]: the “Whether it can increase the expression of VEGF in cells” value in assay [1] is “Yes”. Besides, the “Whether it can increase the expression of EPO in cells” value in assay [2] is listed as “Yes”. On to `N#Cc1ccccc1C#Cc1cnc(C(=O)NCC(=O)O)c(O)c1` [Example 20, 2-(3-Hydroxy-5-o-cyanophenylethynyl)picolinamido acetic acid], for which, in assay [1], the “Whether it can increase the expression of VEGF in cells” value is reported as “Yes”. Moreover, in assay [2], the “Whether it can increase the expression of EPO in cells” value is “Yes”. With `CC(=O)Nc1ccc(C#Cc2cnc(C(=O)NCC(=O)O)c(O)c2)cc1` [Example 22, 2-(3-Hydroxy-5-p-acetamidophenylethynyl)picolinamido acetic acid], in assay [1], the “Whether it can increase the expression of VEGF in cells” value is listed as “Yes”. In addition, the “Whether it can increase the expression of EPO in cells” value in assay [2] was “Yes”. As to `CN(C)C(=O)c1ccc(C#Cc2cnc(C(=O)NCC(N)=O)c(O)c2)cc1` [Example 23, 2-(3-Hydroxy-5-p-dimethylcarbamoylphenylethynyl)picolinamidoacetamide], the “Whether it can increase the expression of VEGF in cells” value in assay [1] is “Yes”. Moreover, the “Whether it can increase the expression of EPO in cells” value in assay [2] is on record as “Yes”. On to `CCCCC(=O)Nc1ccc(C#Cc2cnc(C(=O)NCC(=O)OCC3CC3)c(O)c2)cc1` [Example 24, Cyclopropylmethyl 2-(3-hydroxy-5-p-pentanaminophenylethynyl)picolinamidoacetate], for which the “Whether it can increase the expression of EPO in cells” value in assay [2] is given as “Yes”. Take `CCCCNC(=O)c1ccc(C#Cc2cnc(C(=O)NCC(=O)OC(C)C)c(O)c2)cc1` [Example 25, Isopropyl 2-(3-hydroxy-5-p-butylcarbamoylphenylethynyl)picolinamidoacetate]: in assay [1], the “Whether it can increase the expression of VEGF in cells” value is reported as “Yes”.

As for `NC(=O)CNC(=O)c1ncc(C#CCOc2ccc(Cl)cc2)cc1O` [Example 28], the “Whether it can increase the expression of VEGF in cells” value in assay [1] was “Yes”. For the same compound, the “Whether it can increase the expression of EPO in cells” value in assay [2] is listed as “Yes”. As to `CCc1ccc(OCC#Cc2cnc(C(=O)NCC(=O)OC)c(O)c2)cc1` [Example 29, Methyl 2-(3-hydroxy-5-(3-p-ethylphenoxypropyn-1-yl))picolinamido acetate], in assay [1], the “Whether it can increase the expression of VEGF in cells” value is “Yes”. Besides, in assay [2], the “Whether it can increase the expression of EPO in cells” value is listed as “Yes”.

As to `CC(C)OC(=O)CNC(=O)c1ncc(C#CCOc2ccc(C#N)cc2)cc1O` [Example 30, Isopropyl 2-(3-hydroxy-5-(3-p-cyanophenoxypropyn-1-yl))picolinamido acetate], in assay [1], the “Whether it can increase the expression of VEGF in cells” value was “Yes”. Further, in assay [2], the “Whether it can increase the expression of EPO in cells” value is given as “Yes”. Regarding `COc1ccc(OCC#Cc2cnc(C(=O)NCC(=O)O)c(O)c2)cc1` [Example 39, 2-(3-Hydroxy-5-(3-p-methoxyphenoxypropyn-1-yl))picolinamido acetic acid], the “Whether it can increase the expression of VEGF in cells” value in assay [1] is on record as “Yes”. The “Whether it can increase the expression of EPO in cells” value in assay [2] is “Yes”. `CC(C)(C)Oc1cccc(OCC#Cc2cnc(C(=O)NCC(=O)O)c(O)c2)c1` [Example 40, 2-(3-Hydroxy-5-(3-m-tert-butoxyphenoxypropyn-1-yl))picolinamido acetic acid]: the “Whether it can increase the expression of VEGF in cells” value in assay [1] is “Yes”. The “Whether it can increase the expression of EPO in cells” value in assay [2] is “Yes”. For `O=C(O)CNC(=O)c1ncc(C#CCOc2cccc(OC3CC3)c2)cc1O` [Example 41, 2-(3-Hydroxy-5-(3-m-cyclopropoxyphenoxypropyn-1-yl))picolinamido acetic acid], the “Whether it can increase the expression of VEGF in cells” value in assay [1] is “Yes”. In assay [2], the “Whether it can increase the expression of EPO in cells” value is recorded as “Yes”. With `O=C(O)CNC(=O)c1ncc(C#CCOc2cccc(Br)c2)cc1O` [Example 48, 2-(3-Hydroxy-5-(3-m-bromophenoxypropyn-1-yl))picolinamido acetic acid], the “Whether it can increase the expression of VEGF in cells” value in assay [1] was “Yes”. For the same compound, in assay [2], the “Whether it can increase the expression of EPO in cells” value was “Yes”. In the case of `N#Cc1cccc(OCC#Cc2cnc(C(=O)NCC(=O)O)c(O)c2)c1` [Example 49, 2-(3-Hydroxy-5-(3-m-cyanophenoxypropyn-1-yl))picolinamido acetic acid], the “Whether it can increase the expression of VEGF in cells” value in assay [1] is recorded as “Yes”. Also, the “Whether it can increase the expression of EPO in cells” value in assay [2] is “Yes”. As to `NC(=O)c1ccc(OCC#Cc2cnc(C(=O)NCC(=O)O)c(O)c2)cc1` [Example 52, 2-(3-Hydroxy-5-(3-p-carbamoylphenoxypropyn-1-yl))picolinamido acetic acid], the “Whether it can increase the expression of EPO in cells” value in assay [2] is given as “Yes”.

As to `O=C(O)CNC(=O)c1ncc(C#CCOc2ccc(C(=O)N3CCCC3)cc2)cc1O` [Example 54, 2-(3-Hydroxy-5-(3-(4-(pyrrolidin-1-carbonyl)phenoxy)propyn-1-yl))picolinamido acetic acid], the “Whether it can increase the expression of VEGF in cells” value in assay [1] was “Yes”. Moreover, the “Whether it can increase the expression of EPO in cells” value in assay [2] was “Yes”. In the case of `O=C(O)CNC(=O)c1nc(Cl)c(C#CCOc2ccc(C(=O)N3CC3)cc2)cc1O` [Example 55], the “Whether it can increase the expression of VEGF in cells” value in assay [1] is “Yes”. Moreover, the “Whether it can increase the expression of EPO in cells” value in assay [2] is reported as “Yes”. With `O=C(O)CNC(=O)c1ncc(C#CCOc2ccc3ccccc3c2)cc1O` [Example 58, 2-(3-Hydroxy-5-(3-(naphthalen-2-oxy)propyn-1-yl))picolinamido acetic acid], the “Whether it can increase the expression of VEGF in cells” value in assay [1] was “Yes”. The “Whether it can increase the expression of EPO in cells” value in assay [2] is recorded as “Yes”. As for `Cc1nc(C(=O)NCC(=O)O)c(O)cc1C#CCOc1ccc(C2CC2)cc1` [Example 63, 2-(3-Hydroxy-5-(3-p-cyclopropylphenoxypropyn-1-yl)-6-methyl)picolinamido acetic acid], the “Whether it can increase the expression of EPO in cells” value in assay [2] is “Yes”.
